Positions count from the first letter of the chain named.
Assays:
[1] = target: T1, MCT1 (Homo sapiens, UniProt P53985); assay: HEK cell intracellular pH (BCECF) / phloretin inhibition assay; assay type: cell-based; conditions: HEK cells; for effect on the intracellular pH response to lactate: applied together with lactate
T1 sequence (P53985 1-500): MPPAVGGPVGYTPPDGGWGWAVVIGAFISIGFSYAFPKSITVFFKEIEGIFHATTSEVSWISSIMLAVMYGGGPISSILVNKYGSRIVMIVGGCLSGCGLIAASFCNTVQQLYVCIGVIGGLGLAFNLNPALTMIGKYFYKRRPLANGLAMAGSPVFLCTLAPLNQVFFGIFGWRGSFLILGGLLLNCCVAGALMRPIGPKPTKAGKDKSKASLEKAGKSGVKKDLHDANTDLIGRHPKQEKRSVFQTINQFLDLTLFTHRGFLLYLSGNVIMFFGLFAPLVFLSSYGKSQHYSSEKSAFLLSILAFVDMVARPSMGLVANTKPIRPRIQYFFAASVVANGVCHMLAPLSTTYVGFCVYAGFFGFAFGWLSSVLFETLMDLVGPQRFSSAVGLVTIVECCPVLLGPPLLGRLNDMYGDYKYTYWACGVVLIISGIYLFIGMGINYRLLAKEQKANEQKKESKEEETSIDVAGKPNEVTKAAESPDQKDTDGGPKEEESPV
Excerpt: Because MCT1 transports both the carboxylate anion and the corresponding proton, a pH measuring assay was developed to measure net transport of protons into the cytoplasm. Intracellular pH can be measured by a pH-sensitive fluorescent dye such as BCECF. […] In the phloretin inhibition assay, the HEK cells are first exposed to a plurality of solutions containing various concentrations of the test compound (in FIG. 3, the model test compound is lactate) and then to the same solutions to which have been added a set (0.25 mM) concentration of phloretin. Thus, FIG. 3 is a graph of lactate concentration ([L]) versus the percent of maximum pH change found with administration of the highest concentration of the test compound (lactate) alone. […] This is because MCT1 co-transports lactate and a proton into the HEK cells, causing their internal pH to decrease. This pH lowering effect is shown by the characteristic reverse-S-shaped dose response upper curve in FIG. 3. When the cells are exposed to the solutions containing both lactate and phloretin, the phloretin inhibits the lactate uptake by MCT1 and there is little pH change in the cells, as shown by the relatively flat lower curve in FIG. 3. The phloretin inhibition assay can also be used to determine those carboxylic acids that are actively transported MCT substrates from those that are only passively absorbed across the cell membrane. In the latter case, when a passive absorbed acid is applied to HEK cells, there is an intracellular acidification, which occurs both with and without phloretin.
FIG. 4 is a graph of 2-TPGA concentration ([2-TPGA]) versus the relative percent decrease in intracellular pH compared to a standard decrease in intracellular pH caused by exposure of the cells to 20 mM lactate solution. When 0.25 mM phloretin was applied to these cells in addition to 2-TPGA, MCT1 transport was blocked and no significant pH change was detected.
FIG. 5 is a graph of sulfasalazine concentration ([sulfasalazine]) versus the relative percent decrease in intracellular pH compared to a standard decrease in intracellular pH caused by exposure of the cells to 20 mM lactate solution.

[2] = target: T2, MCT4 (Homo sapiens, UniProt O15427); assay: Xenopus oocyte ROMK electrophysiological pH assay, MCT4; assay type: cell-based; set-up: The complete open reading frame was cloned into a Xenopus oocyte expression plasmid; expressed in transfected cells; host or cells: Xenopus oocytes injected with cRNA
T2 sequence (O15427 1-465): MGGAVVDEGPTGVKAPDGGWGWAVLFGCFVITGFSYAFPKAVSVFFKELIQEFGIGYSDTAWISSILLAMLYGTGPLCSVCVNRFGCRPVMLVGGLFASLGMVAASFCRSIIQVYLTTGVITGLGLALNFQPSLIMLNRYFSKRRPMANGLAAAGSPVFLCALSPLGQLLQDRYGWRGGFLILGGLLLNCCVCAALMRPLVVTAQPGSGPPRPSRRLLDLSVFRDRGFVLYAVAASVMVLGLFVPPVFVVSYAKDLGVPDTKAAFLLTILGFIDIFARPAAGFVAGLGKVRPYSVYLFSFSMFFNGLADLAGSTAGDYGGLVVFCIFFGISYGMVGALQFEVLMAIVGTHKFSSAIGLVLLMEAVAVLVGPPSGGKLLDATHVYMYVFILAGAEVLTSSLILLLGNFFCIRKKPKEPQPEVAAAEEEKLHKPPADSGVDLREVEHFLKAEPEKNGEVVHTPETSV

[3] = target: T3, MCT1 (Homo sapiens, UniProt P53985, D490E); assay: Xenopus oocyte ROMK electrophysiological pH assay, MCT1; assay type: cell-based
T3 sequence (P53985 1-500 D490E): T1 sequence (P53985 1-500) with D490E

[4] = target: T1, MCT1; conditions: cited from earlier work
[5] = target: T2, MCT4; conditions: cited from earlier work

In the case of O=C(O)C(=O)c1cccs1 [Compound 2-TPGA, 2-thiophene glyoxylic acid], the “substrate status from intracellular pH change with and without 0.25 mM phloretin” value ([1]; FIG. 4) is reported as “substrate for, and is actively transported by, MCT1”.

With CC(O)C(=O)O (centres unmarked) [lactate] the “effect on ROMK potassium current” value ([2]; oocytes co-expressing ROMK and MCT4, 10 mM lactate solution) was “strong inhibition of the potassium current”, the “effect on ROMK potassium current” value ([3]; oocytes co-expressing ROMK and MCT1, 10 mM lactate solution) was “strong inhibition of the potassium current” and the “intracellular pH change when applied alone” value [1] was “dose-dependent intracellular acidification”. For the same molecule, the affinity for lactate [4] was ~2 mM and the affinity for lactate [5] was ~40 mM.

For O=C(CCc1ccc(O)cc1)c1c(O)cc(O)cc1O [phloretin], the “effect of co-application with lactate on the potassium current” value ([2]; oocytes co-expressing ROMK and MCT4, 350 μM phloretin and 10 mM lactate) was “completely blocks the effect of lactate on the potassium current”, the “effect of co-application with lactate on the potassium current” value ([3]; oocytes co-expressing ROMK and MCT1, 350 μM phloretin and 10 mM lactate) was “completely blocks the effect of lactate on the potassium current” and the “intracellular pH change when applied alone” value [1] was “does not cause an intracellular pH change”. For the same molecule, the “effect on the intracellular pH response to lactate” value [1] was “completely blocks the lactate response”.

With O=C(O)c1cc(/N=N/c2ccc(S(=O)(=O)Nc3ccccn3)cc2)ccc1O [sulfasalazine] the “effect on the intracellular pH response to lactate” value [1] was “inhibitor of MCT1”.

Reference: patent US20090092553A1, “MONOCARBOXYLATE TRANSPORTERS EXPRESSED IN CANCER CELLS” (Xenoport,Inc., priority 2003, published 2009)
